Results reported in ChEMBL document CHEMBL1148343, “Fragment-based drug discovery” (J Med Chem, 2004).

Tests used:
[1] = Oral bioavailability was determined; Not orally available; assay type: ADME, organism-based; conditions: in vivo
Human papillomavirus [2] = assay: Inhibitory concentration against DNA-binding domain of the human papillomavirus protein E2; assay type: functional
Human papillomavirus [3] = assay: Dissociation constant against DNA-binding domain of the human papillomavirus protein E2; assay type: functional
[4] = biological target: Neuraminidase (Influenza A virus (A/Puerto Rico/8/1934(H1N1)), UniProt P03468)
Neuraminidase (Influenza A virus (A/Puerto Rico/8/1934(H1N1)), UniProt P03468), sequence (P03468 whole entry): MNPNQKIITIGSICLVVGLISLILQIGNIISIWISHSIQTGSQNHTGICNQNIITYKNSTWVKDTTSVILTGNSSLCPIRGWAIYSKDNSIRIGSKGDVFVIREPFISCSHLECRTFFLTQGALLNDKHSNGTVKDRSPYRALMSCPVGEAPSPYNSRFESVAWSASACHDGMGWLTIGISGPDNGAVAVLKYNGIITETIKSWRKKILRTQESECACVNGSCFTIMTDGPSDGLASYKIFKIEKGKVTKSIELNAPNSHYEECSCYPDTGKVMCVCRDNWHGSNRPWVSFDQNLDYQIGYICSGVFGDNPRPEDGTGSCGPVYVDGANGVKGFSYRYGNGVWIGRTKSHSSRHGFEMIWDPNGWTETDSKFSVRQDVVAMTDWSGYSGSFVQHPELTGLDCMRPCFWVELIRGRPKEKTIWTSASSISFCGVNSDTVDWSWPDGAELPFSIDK
Description: Inhibition of influenza A viral enzyme neuraminidase

Stromelysin-1 [5] = biological target: T1, Stromelysin-1 (Homo sapiens, UniProt P08254)
T1 sequence (P08254 whole entry): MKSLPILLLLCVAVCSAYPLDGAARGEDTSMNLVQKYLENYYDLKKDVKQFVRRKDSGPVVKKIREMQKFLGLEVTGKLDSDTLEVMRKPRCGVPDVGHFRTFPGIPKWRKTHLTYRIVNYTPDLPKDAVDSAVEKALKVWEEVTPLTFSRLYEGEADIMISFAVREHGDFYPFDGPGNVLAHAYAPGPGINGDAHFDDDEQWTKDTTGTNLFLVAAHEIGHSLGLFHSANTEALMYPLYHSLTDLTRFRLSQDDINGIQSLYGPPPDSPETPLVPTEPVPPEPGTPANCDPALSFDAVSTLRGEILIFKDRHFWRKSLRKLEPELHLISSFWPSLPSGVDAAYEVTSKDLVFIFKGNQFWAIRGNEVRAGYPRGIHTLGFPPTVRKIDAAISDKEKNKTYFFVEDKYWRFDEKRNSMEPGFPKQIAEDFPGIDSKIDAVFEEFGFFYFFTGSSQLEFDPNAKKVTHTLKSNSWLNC
Description: Inhibition of Matrix Metalloprotease-3 (MMP-3)

Caspase-3 = Caspase-3 (Homo sapiens, UniProt P42574); assay: Binding affinity against Caspase-3
[6] = Dissociation constant against Erythromycin-Resistance Methylase AM
Collagenase 3 = Collagenase 3 (Homo sapiens, UniProt P45452); assay: Inhibition of Matrix Metalloprotease-13 (MMP-13)
Interstitial collagenase = Interstitial collagenase (Homo sapiens, UniProt P03956)
Interstitial collagenase, sequence (P03956 whole entry): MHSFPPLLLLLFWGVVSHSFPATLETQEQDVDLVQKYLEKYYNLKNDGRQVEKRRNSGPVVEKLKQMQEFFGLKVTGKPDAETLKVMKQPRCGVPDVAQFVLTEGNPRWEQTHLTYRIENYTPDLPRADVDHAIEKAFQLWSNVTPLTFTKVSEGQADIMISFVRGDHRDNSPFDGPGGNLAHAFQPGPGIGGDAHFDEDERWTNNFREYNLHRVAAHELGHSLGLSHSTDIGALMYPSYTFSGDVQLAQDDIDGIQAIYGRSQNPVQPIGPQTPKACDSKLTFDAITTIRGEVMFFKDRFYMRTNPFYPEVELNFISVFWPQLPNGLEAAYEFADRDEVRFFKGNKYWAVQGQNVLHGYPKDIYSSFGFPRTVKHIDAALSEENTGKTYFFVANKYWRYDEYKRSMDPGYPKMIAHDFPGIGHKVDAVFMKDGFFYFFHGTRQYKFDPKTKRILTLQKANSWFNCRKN
Description: Inhibition of Matrix Metalloprotease-1 (MMP-1)

Nucleic Acid = assay: Dissociation constant towards Mutant U1061A RNA; assay type: nucleic-acid assay
[7] = biological target: Mitogen-activated protein kinase 10 (Homo sapiens, UniProt P53779); assay: Affinity for c-Jun N-terminal kinase 3
Mitogen-activated protein kinase 10, sequence (P53779 whole entry): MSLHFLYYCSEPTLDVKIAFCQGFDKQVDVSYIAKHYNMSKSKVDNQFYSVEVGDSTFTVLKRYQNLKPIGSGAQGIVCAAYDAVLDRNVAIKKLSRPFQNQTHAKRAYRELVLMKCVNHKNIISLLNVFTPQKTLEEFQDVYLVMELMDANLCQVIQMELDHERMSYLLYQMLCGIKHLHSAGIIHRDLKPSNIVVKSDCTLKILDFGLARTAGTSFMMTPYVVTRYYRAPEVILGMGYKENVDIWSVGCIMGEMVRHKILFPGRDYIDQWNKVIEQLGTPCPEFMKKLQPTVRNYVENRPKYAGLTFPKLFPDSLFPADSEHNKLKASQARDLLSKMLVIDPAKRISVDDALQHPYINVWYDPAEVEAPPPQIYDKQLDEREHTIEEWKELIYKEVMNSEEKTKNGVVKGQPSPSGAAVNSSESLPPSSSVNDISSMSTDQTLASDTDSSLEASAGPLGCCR

[8] = Oral bioavailability; assay type: ADME, organism-based; conditions: eutheria, in vivo
[9] = biological target: Proto-oncogene tyrosine-protein kinase Src (Homo sapiens, UniProt P12931); assay: Inhibition of c-Src tyrosine kinase
Proto-oncogene tyrosine-protein kinase Src, sequence (P12931 2-536 limits assumed): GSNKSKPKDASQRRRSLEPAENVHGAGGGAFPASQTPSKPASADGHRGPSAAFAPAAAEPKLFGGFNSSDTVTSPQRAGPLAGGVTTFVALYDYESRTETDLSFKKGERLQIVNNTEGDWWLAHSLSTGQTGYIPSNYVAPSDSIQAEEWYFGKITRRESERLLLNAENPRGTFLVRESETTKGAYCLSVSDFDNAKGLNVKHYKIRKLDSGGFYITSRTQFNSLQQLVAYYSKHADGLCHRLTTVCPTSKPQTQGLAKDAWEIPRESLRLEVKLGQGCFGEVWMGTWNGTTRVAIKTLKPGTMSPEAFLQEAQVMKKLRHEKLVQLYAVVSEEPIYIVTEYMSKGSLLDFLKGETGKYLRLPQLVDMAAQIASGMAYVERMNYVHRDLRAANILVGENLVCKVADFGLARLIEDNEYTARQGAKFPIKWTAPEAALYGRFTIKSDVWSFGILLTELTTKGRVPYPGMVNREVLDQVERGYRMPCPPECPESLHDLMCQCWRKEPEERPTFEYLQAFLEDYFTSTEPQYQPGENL

Acetylcholinesterase [10] = biological target: Acetylcholinesterase (Rattus norvegicus, UniProt P37136); assay: Inhibitory concentration against Acetylcholinesterase in rat brain; assay type: tissue-based
Acetylcholinesterase (Rattus norvegicus, UniProt P37136), sequence (P37136 whole entry): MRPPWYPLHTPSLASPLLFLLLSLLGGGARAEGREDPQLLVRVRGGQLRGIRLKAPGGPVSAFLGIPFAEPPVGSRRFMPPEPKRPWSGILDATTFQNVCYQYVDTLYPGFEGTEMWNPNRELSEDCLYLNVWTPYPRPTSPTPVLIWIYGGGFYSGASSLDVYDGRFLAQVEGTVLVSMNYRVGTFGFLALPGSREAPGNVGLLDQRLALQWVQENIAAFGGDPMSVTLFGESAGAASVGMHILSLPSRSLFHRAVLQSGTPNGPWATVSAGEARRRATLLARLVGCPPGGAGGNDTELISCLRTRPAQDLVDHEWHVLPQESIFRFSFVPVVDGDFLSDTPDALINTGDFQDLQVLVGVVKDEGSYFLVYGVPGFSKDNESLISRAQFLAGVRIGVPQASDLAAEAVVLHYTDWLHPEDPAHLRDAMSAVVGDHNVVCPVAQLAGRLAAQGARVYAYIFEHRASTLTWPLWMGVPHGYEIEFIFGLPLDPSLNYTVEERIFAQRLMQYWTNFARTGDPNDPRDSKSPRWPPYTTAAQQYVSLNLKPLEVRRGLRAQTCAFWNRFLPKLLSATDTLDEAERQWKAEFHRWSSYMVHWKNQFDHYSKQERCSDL

[11] = Dissociation constant against FK506 binding protein
Adenosine deaminase = Adenosine deaminase (Homo sapiens, UniProt P00813)
Description: Binding affinity towards adenosine deaminase

[12] = biological target: Adenylosuccinate synthetase isozyme 2 (Homo sapiens, UniProt P30520)
Adenylosuccinate synthetase isozyme 2, sequence (P30520 whole entry): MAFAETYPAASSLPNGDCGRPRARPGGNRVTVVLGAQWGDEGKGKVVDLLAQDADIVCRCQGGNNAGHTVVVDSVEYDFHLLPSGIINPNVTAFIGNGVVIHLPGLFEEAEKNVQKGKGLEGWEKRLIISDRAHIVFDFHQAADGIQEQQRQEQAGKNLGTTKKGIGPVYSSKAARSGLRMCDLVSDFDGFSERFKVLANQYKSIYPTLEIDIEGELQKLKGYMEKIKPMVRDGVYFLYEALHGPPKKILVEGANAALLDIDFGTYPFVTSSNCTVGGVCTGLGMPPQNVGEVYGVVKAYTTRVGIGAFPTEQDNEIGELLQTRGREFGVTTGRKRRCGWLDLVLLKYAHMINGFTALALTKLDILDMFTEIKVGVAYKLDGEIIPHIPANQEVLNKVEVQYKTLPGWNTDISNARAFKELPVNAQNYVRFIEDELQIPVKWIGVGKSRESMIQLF
Description: Inhibitory concentration against Adenylosuccinate synthetase

Stromelysin-1 [13] = biological target: T1, Stromelysin-1; assay: Dissociation constant for Matrix Metalloprotease-3 (MMP-3)
[14] = biological target: Intercellular adhesion molecule (ICAM-1), Integrin alpha-L/beta-2 (Homo sapiens, UniProt P05107+P20701)
Description: Inhibition of Leukocyte function associated antigen 1 (LFA-1)

[15] = biological target: Urokinase-type plasminogen activator (Homo sapiens, UniProt P00749)
Description: Binding affinity towards Urokinase-type plasminogen activator

[16] = Half life was determined; assay type: ADME; conditions: rat
[17] = biological target: Tyrosine-protein phosphatase non-receptor type 1 (Homo sapiens, UniProt P18031)
Description: Dissociation constant for Protein-tyrosine phosphatase 1B

[18] = biological target: T2, Glycogen phosphorylase, liver form (Mus musculus, UniProt Q9ET01)
T2 sequence (Q9ET01 whole entry): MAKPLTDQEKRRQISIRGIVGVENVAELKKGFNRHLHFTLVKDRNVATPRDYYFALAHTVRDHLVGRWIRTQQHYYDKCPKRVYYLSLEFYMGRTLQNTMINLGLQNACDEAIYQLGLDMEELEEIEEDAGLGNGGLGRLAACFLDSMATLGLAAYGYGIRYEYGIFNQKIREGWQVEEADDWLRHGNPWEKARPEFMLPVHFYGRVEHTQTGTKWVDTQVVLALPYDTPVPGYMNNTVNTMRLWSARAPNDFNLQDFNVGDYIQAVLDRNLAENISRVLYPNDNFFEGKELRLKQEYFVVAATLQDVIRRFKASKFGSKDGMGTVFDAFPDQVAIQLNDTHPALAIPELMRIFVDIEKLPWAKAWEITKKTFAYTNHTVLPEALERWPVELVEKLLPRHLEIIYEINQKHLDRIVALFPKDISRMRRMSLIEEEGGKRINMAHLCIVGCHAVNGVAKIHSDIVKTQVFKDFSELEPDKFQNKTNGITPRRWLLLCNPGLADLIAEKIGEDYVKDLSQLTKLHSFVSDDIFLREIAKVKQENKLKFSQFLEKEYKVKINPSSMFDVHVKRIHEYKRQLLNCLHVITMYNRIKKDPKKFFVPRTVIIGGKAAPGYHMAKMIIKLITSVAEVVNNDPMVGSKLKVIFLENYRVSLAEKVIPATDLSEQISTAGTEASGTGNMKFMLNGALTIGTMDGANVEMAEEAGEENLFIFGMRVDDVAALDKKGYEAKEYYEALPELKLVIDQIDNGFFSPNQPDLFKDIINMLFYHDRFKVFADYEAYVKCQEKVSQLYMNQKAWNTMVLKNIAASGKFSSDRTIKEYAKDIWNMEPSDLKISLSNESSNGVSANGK
Description: Inhibitory concentration against glycogen phosphorylase

Thymidylate synthase [19] = biological target: Thymidylate synthase (Lactobacillus casei, UniProt P00469)
Thymidylate synthase (Lactobacillus casei, UniProt P00469), sequence (P00469 whole entry): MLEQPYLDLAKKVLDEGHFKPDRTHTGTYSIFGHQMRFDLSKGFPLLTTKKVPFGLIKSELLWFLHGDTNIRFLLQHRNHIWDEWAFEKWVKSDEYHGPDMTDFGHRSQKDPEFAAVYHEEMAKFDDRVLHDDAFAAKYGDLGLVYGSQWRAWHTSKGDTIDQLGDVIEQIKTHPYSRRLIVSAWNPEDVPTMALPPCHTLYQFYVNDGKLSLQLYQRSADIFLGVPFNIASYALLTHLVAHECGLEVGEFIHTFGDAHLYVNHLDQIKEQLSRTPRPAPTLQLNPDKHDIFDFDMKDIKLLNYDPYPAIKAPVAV

Bcl-2-like protein 1 = Bcl-2-like protein 1 (Homo sapiens, UniProt Q07817); assay: Inhibitory concentration against B-Cell Lymphoma xL (Bcl-xL) Bak-peptide binding region; assay type: functional
Bcl-2-like protein 1, sequence (Q07817 whole entry): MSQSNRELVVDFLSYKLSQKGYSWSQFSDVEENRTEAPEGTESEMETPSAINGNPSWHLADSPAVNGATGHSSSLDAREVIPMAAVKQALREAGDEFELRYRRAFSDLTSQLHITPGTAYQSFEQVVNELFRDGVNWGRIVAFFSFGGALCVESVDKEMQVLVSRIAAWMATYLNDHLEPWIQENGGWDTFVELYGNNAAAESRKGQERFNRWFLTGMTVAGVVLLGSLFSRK

[20] = Binding affinity against Erythromycin-Resistance Methylase AM
Thymidylate synthase [21] = biological target: Thymidylate synthase (Homo sapiens, UniProt P04818); assay: Tested for binding affinity towards thymidylate synthase
[22] = Inhibition of Interleukin-2 receptor
[23] = biological target: Matrix metalloproteinase-9 (Homo sapiens, UniProt P14780); assay: Inhibition of gelatinase B, matrix metalloprotease-9 (MMP-9)
Matrix metalloproteinase-9, sequence (P14780 whole entry): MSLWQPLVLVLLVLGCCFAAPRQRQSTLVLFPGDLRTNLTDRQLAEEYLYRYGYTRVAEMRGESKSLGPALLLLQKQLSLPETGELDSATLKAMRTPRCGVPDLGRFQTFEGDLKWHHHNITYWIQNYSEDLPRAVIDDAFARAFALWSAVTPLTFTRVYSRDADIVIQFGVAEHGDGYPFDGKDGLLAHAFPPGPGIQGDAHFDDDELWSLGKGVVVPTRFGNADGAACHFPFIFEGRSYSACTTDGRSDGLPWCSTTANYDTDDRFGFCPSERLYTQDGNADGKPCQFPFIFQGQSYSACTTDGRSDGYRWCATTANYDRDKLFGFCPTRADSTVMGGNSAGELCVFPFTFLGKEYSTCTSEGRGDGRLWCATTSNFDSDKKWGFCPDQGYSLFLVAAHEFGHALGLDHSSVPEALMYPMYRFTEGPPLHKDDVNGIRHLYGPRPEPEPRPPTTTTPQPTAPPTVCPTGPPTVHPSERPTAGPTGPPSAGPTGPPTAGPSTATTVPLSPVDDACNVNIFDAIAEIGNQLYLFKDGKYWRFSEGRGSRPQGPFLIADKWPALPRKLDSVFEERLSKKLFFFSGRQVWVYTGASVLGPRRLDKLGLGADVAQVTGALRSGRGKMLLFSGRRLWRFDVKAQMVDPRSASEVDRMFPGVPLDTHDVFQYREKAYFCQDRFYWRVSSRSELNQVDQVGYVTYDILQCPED

[24] = biological target: Cyclin-dependent kinase 2 (Homo sapiens, UniProt P24941); assay: Inhibition of Cyclin-Dependent Kinase 2
Acetylcholinesterase [25] = biological target: Acetylcholinesterase (Mus musculus, UniProt P21836)
Description: Dissociation constant towards Acetylcholinesterase in mouse

Description for Carbonic anhydrase: Inhibitory concentration against carbonic anhydrase

With `N=C(N)c1ccc2cccc(Nc3ncccn3)c2c1` the Bioavailabiility [1] was “Not orally available”.
Work on `O=C(O)/C=C/C=C/c1cccc(Oc2cc(Cl)cc(Cl)c2)c1` yielded an IC50 (Human papillomavirus [2]) of 10 µM.
In the case of `O=C(O)/C=C/C=C/c1ccc(Oc2ccccc2)cc1`, the IC50 (Human papillomavirus [2]) is reported as 75 µM and the Kd (Human papillomavirus [3]) is reported as 350 µM.
Work on `O=C(O)c1ccc(-c2cc(Cl)cc(Cl)c2)cc1` yielded an IC50 (Human papillomavirus [2]) of 150 µM and a Kd (Human papillomavirus [3]) of 60 µM.
`CC(=O)N[C@H]1[C@H](N)C=C(C(=O)O)C[C@@H]1N` showed an IC50 [4] of 31 µM.
Work on `CONC(=O)c1c(OCCOc2ccc(-c3ccc(C#N)cc3)cc2)ccc2ccccc12` yielded an IC50 (Stromelysin-1 [5]) of 0.34 µM.
`CNS(=O)(=O)c1ccc(O)c(C(=O)O)c1` showed a Ki (Caspase-3) of over 1000 µM.
With `CSc1nc(N)nc(N)n1` the Kd [6] was 1000 µM.
For `NS(=O)(=O)c1ccc(CSCc2ccc(C(=O)O)cc2)cc1`, the IC50 (Carbonic anhydrase) was 0.084 µM.
`O=C(NCCCCN1CCOCC1)c1cc2ccccc2o1` showed an IC50 (Collagenase 3) of 10 µM and an IC50 (Interstitial collagenase) of over 10 µM.
`CCCNC(=O)c1ccc2nc(O)c(O)nc2c1` showed a Kd (Nucleic Acid) of over 100 µM.
For `NC(=O)CSCc1ccc(S(N)(=O)=O)cc1`, the IC50 (Carbonic anhydrase) was 0.77 µM.
Work on `O=C(Nc1ccccc1)c1c(Nc2ccccc2)[nH]c(=O)[nH]c1=O` yielded a Ki [7] of 0.72 µM.
`O=C(Nc1cccc(C(F)(F)F)c1)c1csc(-c2ccncc2)n1` gave a Ki [7] of 13 µM.
In the case of `NCC[C@@H](NC(=O)c1ccco1)C(=O)N1CCNCC1`, the Kd (Nucleic Acid) is reported as over 100 µM.
With `Nc1ccc2cccc(Nc3ncccn3)c2n1` the bioavailability [8] was 38%.
For `CO/N=C/c1ccc(O)c(O)c1`, the IC50 [9] was 41 µM.
`C1=CC2N=C3CCCCC3=C(NCCCCCCCNc3c4c(nc5ccccc35)CCCC4)C2C=C1` (stereo not drawn) gave an IC50 (Acetylcholinesterase [10]) of 0.0004 µM.
`O=C(Nc1ccccc1O)c1ccc(O)cc1` gave a Kd [11] of 800 µM.
In the case of `NC(N)=Nc1nc(-c2ccc(CNc3cc4ccccc4[nH]3)s2)cs1`, the Ki (Adenosine deaminase) is reported as 1.2 µM.
In the case of `O=CN(O)[C@@H](CCCN1C(=O)N[C@@]2(O[C@H](COP(=O)(O)O)[C@@H](O)[C@H]2O)C1=O)C(=O)O`, the IC50 [12] is reported as 0.043 µM.
With `N#CCc1cccc(-c2ccc(O)cc2)c1` the Kd (Stromelysin-1 [13]) was 20 µM.
With `NCC[C@@H](NC(=O)c1ccc(-c2cccc(NC(=O)c3ccc4nc(O)c(O)nc4c3)c2)o1)C(=O)N1CCNCC1` the Kd (Nucleic Acid) was 6.5 µM.
In the case of `CCn1c2ccccc2c2cc(/C=N\OC)ccc21`, the IC50 [9] is reported as 40 µM.
In the case of `CC(=O)N1CCN(C(=O)/C=C/c2cccc([N+](=O)[O-])c2)CC1`, the IC50 [14] is reported as 80 µM.
With `CCn1c2ccccc2c2cc(/C=N\OCCO/N=C/c3ccc(O)c(O)c3)ccc21` the IC50 [9] was 0.064 µM.
`Nc1ccc2cccc(O)c2n1` gave a Ki [15] of 56 µM.
`O=C(O)c1ccc2nc(O)c(O)nc2c1` showed a Kd (Nucleic Acid) of over 100 µM.
For `CC(=O)N1CCN(C(=O)/C=C/c2ccc(Sc3ccc4[nH]ccc4c3)c(Cl)c2)CC1`, the half-life [16] was 4.7 h.
`O=C(O)c1cc2ccccc2s1` gave a Kd [17] of over 1000 µM.
In the case of `CN(C)C(=O)[C@H](O)[C@H](Cc1ccccc1)NC(=O)c1cc2cc(Cl)ccc2[nH]1`, the IC50 [18] is reported as 0.13 µM.
With `CCC(CC)N[C@@H]1C=C(C(=O)O)C[C@H](N)[C@H]1NC(C)=O` the IC50 [4] was 0.085 µM.
`O=C(O)CCCc1ccc(Oc2ccccc2)cc1` showed a Kd (Human papillomavirus [3]) of 1900 µM.
Compound `c1ccc(NCCCCCCCNc2c3c(nc4ccccc24)CCCC3)cc1` has an IC50 (Acetylcholinesterase [10]) of 0.39 µM.
`COc1cc(C(=O)C(=O)N2CCCC[C@H]2C(=O)OCCCOc2ccc(C(=O)Nc3ccc(O)cc3)cc2)cc(OC)c1OC` gave a Kd [11] of 0.019 µM.
Work on `COC(=O)[C@@H]1CCCCN1C(=O)C(=O)c1cc(OC)c(OC)c(OC)c1` yielded a Kd [11] of 2 µM.
For `O=C(O)CC[C@H](NC(=O)c1ccc(S(=O)(=O)N2CCC[C@@H]2C(=O)O)cc1)C(=O)O`, the Ki (Thymidylate synthase [19]) was 24 µM.
Work on `COCCNC(=O)c1cc2cc(Cl)ccc2[nH]1` yielded an IC50 [18] of 12.5 µM.
Work on `CC(=O)N[C@@H]1[C@@H](N)CC(C(=O)O)=C[C@H]1NCCCc1ccccc1` yielded an IC50 [4] of 1.64 µM.
`Cc1cc(C)c(N(Cc2ccccc2)S(=O)(=O)c2ccc(OCCNC(=O)c3cc4ccccc4o3)cc2)c(C(=O)NO)c1` showed an IC50 (Interstitial collagenase) of over 10 µM.
`CN(C)CC/C=C(\c1ccc(Cl)cc1)c1ccc(CCCc2ccc(/C(=C\CCN(C)C)c3ccc(Cl)cc3)cc2)cc1` showed an IC50 (Bcl-2-like protein 1) of 10 µM.
With `Nc1nc(NC2Cc3ccccc3C2)nc(N2CCCCC2)n1` the Ki [20] was 8 µM.
With `CN(C)CCC=C(c1ccc(Cl)cc1)c1ccc(Cl)cc1` the IC50 (Bcl-2-like protein 1) was 180 µM.
For `O=C(Nc1ccc(O)cc1)c1ccc(O)cc1`, the Kd [11] was 100 µM.
In the case of `Cc1ccc(S(=O)(=O)N2CCC[C@@H]2C(=O)O)cc1`, the Ki (Thymidylate synthase [21]) is reported as 1100 µM.
Compound `O=C(O)CCNC(=O)[C@H]1CCCN1S(=O)(=O)c1ccc(C(=O)N[C@@H](CCC(=O)O)C(=O)O)cc1` has a Ki (Thymidylate synthase [19]) of 0.33 µM.
Work on `COc1ccc(-c2cc(C3CCN(C(=O)CNC(=O)[C@@H](CC(C)C)N=C(N)N)CC3)n(C)n2)c(Cl)c1Cl` yielded an IC50 [22] of 3 µM.
In the case of `CC(C)C[C@@H](NC(=N)N)C(=O)NCC(=O)N1CCC(c2cc(-c3ccc(OCc4ccc(C(=O)O)o4)c(Cl)c3Cl)nn2C)CC1`, the IC50 [22] is reported as 0.06 µM.
Work on `O=C(NCCOCCOCCNC(=O)c1cc2cc(Cl)ccc2[nH]1)c1cc2cc(Cl)ccc2[nH]1` yielded an IC50 [18] of 0.006 µM.
For `NCc1nc2ccc(NCc3ccccc3OCc3ccccc3)cc2[nH]1`, the IC50 [23] was 13 µM.
Work on `Oc1ccc(-c2ccccc2)cc1` yielded a Kd (Stromelysin-1 [13]) of 280 µM.
Work on `NS(=O)(=O)c1ccc(N/N=C2\C(=O)Nc3ccc(Cl)cc32)cc1` [GW280670X] yielded an IC50 [24] of 0.03 µM.
`O=CN(O)CC(=O)O` [HADACIDIN] showed an IC50 [12] of 3.5 µM.
For `O=C1NC(=O)[C@@]2(N1)O[C@H](COP(=O)(O)O)[C@@H](O)[C@H]2O` [PHOSPHOHYDANTOCIDIN], the IC50 [12] was 0.675 µM.
Compound `CC[N+](C)(CC)CCC[n+]1c(-c2ccccc2)c2cc(N)ccc2c2ccc(N)cc21` [PROPIDIUM] has a Kd (Acetylcholinesterase [25]) of 1.1 µM.
